{"source": "patent US12564638B2", "about": "(SHANGHAITECH UNIVERSITY, priority 2019, dated 2026)", "format_in_all_cases": "cell-based", "key": {"[1]": {"target": "EGFR (Exon 19del) in HCC827 cells (Homo sapiens, UniProt P00533, DEL746-750)", "sequence (P00533 with tags, fused parts or gaps DEL746-750)": "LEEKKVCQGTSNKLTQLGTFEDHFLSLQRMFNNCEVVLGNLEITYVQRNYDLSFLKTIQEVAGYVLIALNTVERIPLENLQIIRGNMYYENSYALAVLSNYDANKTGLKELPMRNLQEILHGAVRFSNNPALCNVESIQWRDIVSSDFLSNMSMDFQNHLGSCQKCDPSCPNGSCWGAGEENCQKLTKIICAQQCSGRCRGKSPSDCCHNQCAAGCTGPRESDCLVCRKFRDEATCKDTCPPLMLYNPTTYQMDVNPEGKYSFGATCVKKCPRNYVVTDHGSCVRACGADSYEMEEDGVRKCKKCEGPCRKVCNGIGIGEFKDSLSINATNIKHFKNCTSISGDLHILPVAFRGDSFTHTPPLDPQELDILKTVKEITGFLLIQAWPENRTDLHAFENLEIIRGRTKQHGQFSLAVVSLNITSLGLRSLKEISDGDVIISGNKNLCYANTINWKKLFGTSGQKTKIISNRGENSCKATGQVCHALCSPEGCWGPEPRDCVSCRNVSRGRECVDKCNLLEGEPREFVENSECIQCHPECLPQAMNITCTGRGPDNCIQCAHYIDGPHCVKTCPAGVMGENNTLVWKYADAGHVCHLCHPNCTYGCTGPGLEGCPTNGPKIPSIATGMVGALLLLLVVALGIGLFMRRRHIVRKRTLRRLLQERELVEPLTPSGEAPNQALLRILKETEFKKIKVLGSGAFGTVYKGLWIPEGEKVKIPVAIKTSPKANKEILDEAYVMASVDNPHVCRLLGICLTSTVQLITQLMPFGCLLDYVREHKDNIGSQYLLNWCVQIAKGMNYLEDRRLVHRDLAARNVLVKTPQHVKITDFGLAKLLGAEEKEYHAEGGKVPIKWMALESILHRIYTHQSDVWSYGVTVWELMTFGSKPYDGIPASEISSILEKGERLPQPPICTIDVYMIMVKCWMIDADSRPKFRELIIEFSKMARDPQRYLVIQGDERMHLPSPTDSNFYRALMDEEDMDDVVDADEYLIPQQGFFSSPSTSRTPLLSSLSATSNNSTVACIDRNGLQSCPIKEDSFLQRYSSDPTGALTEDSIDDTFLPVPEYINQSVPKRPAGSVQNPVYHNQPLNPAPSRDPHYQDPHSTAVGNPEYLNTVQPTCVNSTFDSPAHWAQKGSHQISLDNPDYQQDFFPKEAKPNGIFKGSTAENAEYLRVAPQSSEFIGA", "test": "Western blot of EGFR protein level (degradation), HCC827 cells", "conditions": "HCC827 cells, 1, 10, 50, 100, 500 nM, 16 hours", "experimental": "Cancer cells were planted in 12-well-plate at the density of 0.15 million cells per well with 1 mL RPMI1640 completed culture medium. Compounds with different concentrations (DMSO as a solution system, and 1 μL of compounds of different concentrations was added to 1 mL of the cell culture medium) were added to the cells planted one day before. 16 hours after treated, the medium was discarded and the cells were washed with precooled PBS. The cells were placed on ice and treated with RIPA protein lysis buffer containing halt protease and phosphatase inhibitor. After centrifugation at 10000 rpm at 4° C. for 10 minutes, the supernatant was collected. The same amount of proteins were added into 4×SDS loading buffer and heated at 95° C. for 5 minutes for denaturation, and the samples were stored at −20° C. after denaturation, or directly conducted protein electrophoresis. The 4-20% gradient preformed Electrophoretic gels were purchased from Kingsy. The electrophoresis tank and related components were purchased from Bio-rad company, and the electrophoresis condition was isobaric 120V for 2 hours. […]\nThe degradation efficacy of the dacomitinib-based compounds on EGFR was determined in HCC827 and H1975 cell lines, which harboring EGFR Exon 19del and EGFR L858R+T790M mutations respectively. […]"}, "[2]": {"test_system": "PC9 cells (EGFR Exon 19 del, non-small cell lung cancer cells)", "test": "Cell viability assay (WST/CCK8), PC9 cells", "conditions": "Homo sapiens, PC-9; PC9 (Exon19 Del), 72 hours, WST (CCK8); read-out: IC50 (half inhibitory concentration)", "in_short": "(§1)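 Cells seeded at 3 000/well in RPMI1640 complete medium, dosed next day with compounds (top 10 μM, 3-fold, 10 points) for 72 h. Viability read with WST (CCK8) reagent; DMSO as negative control, EGFR TKIs as positive controls; IC50 determined.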"}, "[3]": {"test_system": "HCC827 cells (EGFR Exon19 del, non-small cell lung cancer cells)", "test": "Cell viability assay (WST/CCK8), HCC827 cells", "conditions": "Homo sapiens, HCC827, 72 h, HCC827 (Exon19 Del), 72 hours, WST (CCK8); read-out: IC50 (half inhibitory concentration)", "in_short": "as §1"}, "[4]": {"test_system": "PC9BracA1 (EGFR Exon 19 del+T790M, non-small cell lung cancer cells)", "test": "Cell viability assay (WST/CCK8), PC9Brac1 cells", "conditions": "PC9Brac1 (Ex19del + T790M), 72 hours, WST; read-out: IC50 (half inhibitory concentration)", "in_short": "(§2)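 Cells seeded at 3 000 per well in RPMI1640 complete medium, dosed next day with compounds at indicated concentrations (DMSO negative control, EGFR TKIs as positive control).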"}, "[5]": {"test_system": "H1975 (EGFR T790M+L858R mutation, non-small cell lung cancer cell line)", "test": "Cell viability assay (WST/CCK8), H1975 cells", "conditions": "Homo sapiens, NCI-H1975; H1975 (L858R + T790M), 72 hours, WST; read-out: IC50 (half inhibitory concentration)", "in_short": "as §2"}}}
{"molecule": "COc1cc2ncnc(Nc3ccc(F)c(Cl)c3)c2cc1NC(=O)/C=C/CN1CCCCC1", "note": "[dacomitinib, reference compound]", "values": [{"measurement": "EGFR degradation (EGFR level, western blot)", "setting": "[1]", "result": "couldn't degrade EGFR"}, {"measurement": "IC50", "setting": "[2]", "result": 0.0004, "unit": "µM"}, {"measurement": "IC50", "setting": "[3]", "result": 0.0005, "unit": "µM"}, {"measurement": "IC50", "setting": "[4]", "result": 0.674, "unit": "µM"}, {"measurement": "IC50", "setting": "[5]", "result": 0.834, "unit": "µM"}]}
